Measurements reported in ChEMBL document CHEMBL1157885, “The discovery and structure-activity relationships of 2-(piperidin-3-yl)-1H-benzimidazoles as selective, CNS penetrating H1-antihistamines for insomnia” (Bioorg Med Chem Lett, 2010).

What was measured:
Histamine H1 receptor = Histamine H1 receptor (Homo sapiens, UniProt P35367); test: Displacement of [3H]pyrilamine from human histamine H1 receptor expressed in CHO Flp-In cells by liquid scintillation counting; assay type: cell-based
[1] = molecular target: T1, Muscarinic acetylcholine receptor M1 (Homo sapiens, UniProt P11229); test: Displacement of [3H]N-methyl Scopolamine from human muscarinic M1 receptor expressed in CHO Flp-In cells by liquid scintillation counting; assay type: cell-based
T1 sequence (P11229 whole entry): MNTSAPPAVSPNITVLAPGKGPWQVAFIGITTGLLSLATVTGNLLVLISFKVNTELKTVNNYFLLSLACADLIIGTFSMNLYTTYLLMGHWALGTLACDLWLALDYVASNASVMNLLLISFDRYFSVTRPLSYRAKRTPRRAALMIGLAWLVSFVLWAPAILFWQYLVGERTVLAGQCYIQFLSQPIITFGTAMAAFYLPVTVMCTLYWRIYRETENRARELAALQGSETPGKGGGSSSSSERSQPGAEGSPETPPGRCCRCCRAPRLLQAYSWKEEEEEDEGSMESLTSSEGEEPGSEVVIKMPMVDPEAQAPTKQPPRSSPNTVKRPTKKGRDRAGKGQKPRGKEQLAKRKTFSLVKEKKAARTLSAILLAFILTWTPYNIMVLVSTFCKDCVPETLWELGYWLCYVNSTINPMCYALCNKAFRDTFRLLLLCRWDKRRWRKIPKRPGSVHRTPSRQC

Cytochrome P450 2D6 = Cytochrome P450 2D6 (Homo sapiens, UniProt P10635); test: Inhibition of CYP2D6; assay type: ADME
Chain of Cytochrome P450 2D6 (P10635 whole entry): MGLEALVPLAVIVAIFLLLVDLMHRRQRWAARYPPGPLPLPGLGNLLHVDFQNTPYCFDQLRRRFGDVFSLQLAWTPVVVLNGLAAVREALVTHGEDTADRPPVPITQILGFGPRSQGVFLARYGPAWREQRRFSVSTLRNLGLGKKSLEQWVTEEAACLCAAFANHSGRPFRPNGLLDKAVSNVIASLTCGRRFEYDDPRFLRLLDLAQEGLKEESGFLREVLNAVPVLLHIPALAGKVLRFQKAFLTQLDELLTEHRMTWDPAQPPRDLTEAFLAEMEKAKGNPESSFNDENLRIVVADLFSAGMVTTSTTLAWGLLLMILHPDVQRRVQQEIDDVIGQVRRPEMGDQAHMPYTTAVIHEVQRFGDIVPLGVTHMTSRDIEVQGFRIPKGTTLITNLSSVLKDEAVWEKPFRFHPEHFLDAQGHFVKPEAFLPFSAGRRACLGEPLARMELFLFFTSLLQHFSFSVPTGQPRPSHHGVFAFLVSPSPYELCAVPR

Cytochrome P450 3A4 = Cytochrome P450 3A4 (Homo sapiens, UniProt P08684); test: (§1) Inhibition of CYP3A4; assay type: ADME
Chain of Cytochrome P450 3A4 (P08684 whole entry): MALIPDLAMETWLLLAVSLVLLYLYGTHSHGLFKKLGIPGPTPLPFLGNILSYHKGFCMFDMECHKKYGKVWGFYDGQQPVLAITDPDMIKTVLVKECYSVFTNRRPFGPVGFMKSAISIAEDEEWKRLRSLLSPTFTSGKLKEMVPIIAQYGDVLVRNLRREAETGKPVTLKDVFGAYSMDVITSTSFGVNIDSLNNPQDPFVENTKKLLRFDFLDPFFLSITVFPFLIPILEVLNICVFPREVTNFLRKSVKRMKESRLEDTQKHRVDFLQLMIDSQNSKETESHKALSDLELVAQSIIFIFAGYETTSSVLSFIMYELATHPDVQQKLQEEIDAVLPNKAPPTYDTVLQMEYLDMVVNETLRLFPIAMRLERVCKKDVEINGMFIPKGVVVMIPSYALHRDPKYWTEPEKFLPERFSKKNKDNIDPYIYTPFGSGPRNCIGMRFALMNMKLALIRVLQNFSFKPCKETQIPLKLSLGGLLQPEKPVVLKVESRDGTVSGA

[2] = molecular target: T2, Voltage-gated inwardly rectifying potassium channel KCNH2 (Homo sapiens, UniProt Q12809); test: Inhibition of human ERG channel by electrophysiology assay
T2 sequence (Q12809 whole entry): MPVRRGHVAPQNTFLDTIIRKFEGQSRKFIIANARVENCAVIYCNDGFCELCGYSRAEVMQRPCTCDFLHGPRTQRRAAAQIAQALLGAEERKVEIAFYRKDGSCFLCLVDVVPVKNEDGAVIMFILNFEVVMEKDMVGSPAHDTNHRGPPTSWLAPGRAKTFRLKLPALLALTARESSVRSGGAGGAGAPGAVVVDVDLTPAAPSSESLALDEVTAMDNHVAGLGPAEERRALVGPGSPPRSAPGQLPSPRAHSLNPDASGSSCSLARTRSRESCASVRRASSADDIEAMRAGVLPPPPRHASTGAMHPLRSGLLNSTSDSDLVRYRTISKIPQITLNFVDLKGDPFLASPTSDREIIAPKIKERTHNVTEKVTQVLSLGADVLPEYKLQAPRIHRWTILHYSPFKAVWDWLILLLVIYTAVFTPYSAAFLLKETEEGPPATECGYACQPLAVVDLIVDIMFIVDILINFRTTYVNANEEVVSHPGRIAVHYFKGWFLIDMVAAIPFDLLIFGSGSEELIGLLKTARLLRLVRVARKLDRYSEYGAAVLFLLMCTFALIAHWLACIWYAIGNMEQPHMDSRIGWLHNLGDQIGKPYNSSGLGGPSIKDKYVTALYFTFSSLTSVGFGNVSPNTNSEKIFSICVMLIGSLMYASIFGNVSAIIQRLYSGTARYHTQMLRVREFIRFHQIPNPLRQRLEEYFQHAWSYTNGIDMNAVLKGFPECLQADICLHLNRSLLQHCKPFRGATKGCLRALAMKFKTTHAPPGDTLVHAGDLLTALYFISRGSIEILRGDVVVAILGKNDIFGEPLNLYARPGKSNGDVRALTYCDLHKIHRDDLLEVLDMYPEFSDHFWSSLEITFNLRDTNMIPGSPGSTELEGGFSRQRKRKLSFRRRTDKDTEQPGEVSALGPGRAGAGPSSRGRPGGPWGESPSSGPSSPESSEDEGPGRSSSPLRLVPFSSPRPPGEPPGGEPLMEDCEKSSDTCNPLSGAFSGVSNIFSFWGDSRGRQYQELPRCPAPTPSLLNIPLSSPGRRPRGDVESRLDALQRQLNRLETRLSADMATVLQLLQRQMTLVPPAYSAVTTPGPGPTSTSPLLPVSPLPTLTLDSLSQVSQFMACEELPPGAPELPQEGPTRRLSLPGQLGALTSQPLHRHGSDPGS

Liver microsomes = test: Metabolic stability in human liver microsomes; assay type: ADME, Microsome
[3] = molecular target: T2, Voltage-gated inwardly rectifying potassium channel KCNH2; test: Displacement of [3H]dofetolide from human ERG channel expressed in HEK293 cells by liquid scintillation counting; assay type: cell-based
hERG (KCNH2) = hERG (KCNH2) (Homo sapiens, UniProt Q12809); test: Inhibition of human ERG channel at 10 uM by patch clamp assay
Chain of hERG (KCNH2) (Q12809 whole entry): as above

[4] = molecular target: T2, Voltage-gated inwardly rectifying potassium channel KCNH2; test: Inhibition of human ERG channel by patch clamp assay
CYP3A4 = CYP3A4 (Homo sapiens, UniProt P08684); test: as §1; assay type: ADME
Chain of CYP3A4 (P08684 whole entry): as the sequence (P08684 whole entry) above

[5] = Solubility in 0.15 M KCl buffer at pH 7.4 by potentiometric method; assay type: physicochemical

Chain of Histamine H1 receptor (P35367 whole entry): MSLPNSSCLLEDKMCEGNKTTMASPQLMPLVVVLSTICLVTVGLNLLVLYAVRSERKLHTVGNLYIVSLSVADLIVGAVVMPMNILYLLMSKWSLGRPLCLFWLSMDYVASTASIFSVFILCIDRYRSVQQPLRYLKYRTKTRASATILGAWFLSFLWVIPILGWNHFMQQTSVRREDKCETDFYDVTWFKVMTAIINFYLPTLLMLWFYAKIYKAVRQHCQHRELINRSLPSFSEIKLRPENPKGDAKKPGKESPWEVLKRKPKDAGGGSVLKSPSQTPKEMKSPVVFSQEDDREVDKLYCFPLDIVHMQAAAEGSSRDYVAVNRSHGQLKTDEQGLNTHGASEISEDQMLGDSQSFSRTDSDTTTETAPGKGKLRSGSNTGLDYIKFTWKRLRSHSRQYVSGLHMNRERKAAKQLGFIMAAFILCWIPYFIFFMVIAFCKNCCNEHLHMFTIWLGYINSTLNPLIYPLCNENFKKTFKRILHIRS

Row | IC50 (Cytochrome P450 3A4) [µM] | SMILES | Ki [3] [µM] | other results
1 | > 5 | COc1ccc(Cn2c(N3CC[C@@H](N(C)C)C3)nc3ccccc32)cc1 |  | Ki (Histamine H1 receptor): 0.0084 µM; Ki [1]: 2.5 µM; IC50 (Cytochrome P450 2D6): > 10 µM; IC50 [2]: 0.233 µM; Stability (Liver microsomes): Stable
2 | > 5 | CCOCCn1c(N2CC[C@H](N(C)C)C2)nc2ccccc21 |  | Ki (Histamine H1 receptor): 0.0048 µM; Ki [1]: 1.5 µM; IC50 (Cytochrome P450 2D6): > 10 µM; IC50 [2]: 0.021 µM; Stability (Liver microsomes): Stable
3 | > 5 | COc1ccc(Cn2c(C3CCCN(C)C3)nc3ccccc32)cc1 (configuration not stated) | > 5 | 
4 | > 5 | CN1CCCC(c2nc3ccccc3n2CCOc2ccccc2)C1 (configuration not stated) |  | 
5 | > 5 | CN1CCCC(c2nc3ccccc3n2Cc2ccccn2)C1 (configuration not stated) | > 10 | 
6 | > 5 | Cc1csc(Cn2c(C3CCCN(C)C3)nc3ccccc32)n1 (configuration not stated) | > 10 | 
7 | > 5 | Fc1ccc(Cn2c(C3CCCN(C4CCCCC4)C3)nc3ccccc32)cc1 (configuration not stated) | 0.926 | 
8 |  | COc1ccc(Cn2c(C3CCCN(C4CCCCC4)C3)nc3ccccc32)cc1 (configuration not stated) | 1.84 | 
9 | > 5 | COc1ccc(Cn2c(C3CCCN(C4CCOCC4)C3)nc3ccccc32)cc1 (configuration not stated) | > 10 | 
10 | > 5 | CCOCCn1c(C2CCCN(C)C2)nc2ccccc21 (configuration not stated) |  | 
11 |  | CCOCCn1c([C@@H]2CCCN(C)C2)nc2ccccc21 |  | inhibition (INH) (Cytochrome P450 3A4): Not Active
12 |  | CCOCCn1c([C@H]2CCCN(C)C2)nc2ccccc21 |  | inhibition (INH) (Cytochrome P450 3A4): Not Active
13 |  | CN1CCC[C@@H](c2nc3ccccc3n2Cc2ccccn2)C1 | 10.3 | inhibition (INH) (Cytochrome P450 3A4): Not Active; inhibition at 10 µM (hERG (KCNH2)): 39%
14 |  | CN1CCC[C@H](c2nc3ccccc3n2Cc2ccccn2)C1 | > 10 | inhibition (INH) (Cytochrome P450 3A4): Not Active
15 |  | CCOCCn1c([C@@H]2CCCN(C3CCOCC3)C2)nc2ccccc21 | > 3 | inhibition (INH) (Cytochrome P450 3A4): Not Active; IC50 [4]: 2.1 µM
16 | > 5 | COc1ccc(Cn2c(C3CCCN(C(C)C)C3)nc3ccccc32)cc1 (configuration not stated) | 2.65 | 
17 | > 5 | CCOCCn1c(C2CCCN(C3CCOCC3)C2)nc2ccccc21 (configuration not stated) | > 3 | 
18 | > 5 | Cc1csc(Cn2c(C3CCCN(C4CCCCC4)C3)nc3ccccc32)n1 (configuration not stated) | 1.18 | 
19 | > 5 | CCOCCn1c(C2CCCN(C3CCCCC3)C2)nc2ccccc21 (configuration not stated) | > 10 | 
20 | > 5 | Cc1csc(Cn2c(C3CCCN(C4CCOCC4)C3)nc3ccccc32)n1 (configuration not stated) | > 3 | 
21 | > 5 | CN1CCCC(c2nc3ccccc3n2CC2CCCO2)C1 (configuration not stated) | 0.638 | 
22 | > 5 | CC(C)N1CCCC(c2nc3ccccc3n2Cc2ccc(F)cc2)C1 (configuration not stated) | 1.37 | 
23 |  | CN(CC1CCOCC1)C1CCN(c2nc3ccccc3n2Cc2ccc(F)cc2)CC1 |  | Ki [1]: 4.8 µM; IC50 (CYP3A4): > 5 µM
24 |  | Cc1cnn(C2CCN(c3nc4ccccc4n3Cc3ccc(F)cc3)CC2)c1 |  | solubility [5]: < 10 µg/mL
